The values that follow come from patent publication US4268510A, “1,3-Benzoxazine trichloromethyl derivatives, compositions and use” (Imperial Chemical Industries Limited, priority 1978, dated 1981).

Converted amounts (≈) assume the structure as drawn.

The assay has as its system methane production from ruminal fluid. The assay is described as follows: in vitro assay of inhibition of methane production from ruminal fluid. The format is cell-based, steers (pooled rumen fluid). The note with it: 15-16 hours; for IC50: in vitro, diluted rumen fluid with dried ground hay, pH 6.9-7.0, 39° C., read-out: ED50, concentration of the test compound required to produce a 50% reduction in methane production; for inhibition at 1 µg/mL: at 1 μg./ml. As to the method:
Rumen fluid is collected on a regular routine basis from two steers, which are fed on the same hay-plus-concentrate diet. Sampling time is standardised as far as possible, and the fluid from the two animals is pooled on a 50/50 basis. Large particulate matter is removed by filtering the pooled fluid through four layers of muslin cloth. The filtrate is then diluted in the ratio of one volume of filtrate to three volumes of an artificial rumen fluid (prepared as described by G. L. Bales et al., Journal of Dairy Science, 1976, volume 59, page 1850, but omitting acetic acid), and the pH of the mixture is adjusted to 6.9-7.0 with saturated aqueous sodium carbonate solution. Aliquots (50 ml.) of this mixture are dispensed into 100 ml. conical flasks containing dried ground hay (0.5 g.), and each flask is used to test a test compound at a particular concentration.
The test compound is added to the conical flask as a solution in ethanol, the flask is flushed with carbon dioxide gas, stoppered with a suba-seal, and incubated at 39° C. for 15-16 hours. After one hour, a narrow bore needle is inserted through the suba-seal to relieve the gas pressure, and the needle is withdrawn 30 minutes before the incubation is ended. Fermentation is then stopped by placing the flask in ice, and after 15 minutes cooling, the gas over the liquid is analysed for methane by gas chromatography, and the concentration of the test compound required to produce a 50% reduction in methane production (ED50 in μg./ml.) is calculated.
The test of methane inhibition described in Example 12 was repeated for various other compounds, to give the results shown below. The results are expressed as the percentage inhibition of methane production caused by 1 μg./ml. of a test compound, except for those compounds indicated by *, for which 3 μg./ml. was used.

In the case of `CC(=O)Oc1ccc2c(c1)C(=O)NC(C(Cl)(Cl)Cl)O2` (centres unmarked) [drawing 6; R3=CH3 CO . O; R5=H, 6-acetoxy-3,4-dihydro-2-trichloromethyl-2H-benzo[e]-[1,3]-oxazin-4-one], the IC50 is 0.3 µg/mL (≈ 0.924 µM).

Turning to `Cc1ccc2c(c1)COC(C(Cl)(Cl)Cl)N2` (centres unmarked) [drawing 7; R3=CH3, 1,2-dihydro-6-methyl-2-trichloromethyl-4H-benzo[d]-[1,3]oxazine], the IC50 turned out to be 3 µg/mL (≈ 11.3 µM).

As to `COC(=O)c1ccc2c(c1)COC(C(Cl)(Cl)Cl)N2` (centres unmarked) [drawing 9; R1=H; R3=CH3 O . CO; R11=H, methyl 1,2-dihydro-2-trichloromethyl-4H-benzo[d]-[1,3]-oxazine-6-carboxylate], under “in vitro rumen fluid, 39° C.”, at 1 µg/mL the inhibition was 100%.

In the case of `COc1ccc2c(c1)COC(C(Cl)(Cl)Cl)N2` (centres unmarked) [drawing 7; R3=CH3 O, 1,2-dihydro-6-methoxy-2-trichloromethyl-4H-benzo[d]-[1,3]-oxazine], the IC50 turned out to be 0.3 µg/mL (≈ 1.06 µM).

With `N#Cc1ccc2c(c1)C(=O)NC(C(Cl)(Cl)Cl)O2` (centres unmarked) [drawing 8; R1=H; R3=CN; R5=H, 3,4-dihydro-4-oxo-2-trichloromethyl-2H-benzo[e]-[1,3]-oxazine-6-carbonitrile], the inhibition (commonly the drop in the measured response relative to a control, in per cent) at 3 µg/mL (at 3 μg./ml., in vitro rumen fluid, 39° C., read-out: % Methane Inhibition (compounds indicated by *)) is 87%.

Regarding `CN1C(=O)c2ccccc2OC1C(Cl)(Cl)Cl` (centres unmarked) [drawing 8; R1=H; R3=H; R5=CH3, 3,4-dihydro-3-methyl-2-trichloromethylbenzo[e]-[1,3]-oxazin-4-one], for the setting “in vitro rumen fluid, 39° C.”, at 1 µg/mL the inhibition was 100%.

As for `O=C(Nc1ccccc1)C1OC(C(Cl)(Cl)Cl)Nc2ccccc21` (centres unmarked) [drawing 9; R1=H; R3=H; R11=C6 H5 NH . CO, N-phenyl 1,2-dihydro-2-trichloromethyl-4H-benzo[d]-[1,3]-oxazine-4-carboxamide], the inhibition at 1 µg/mL (in vitro rumen fluid, 39° C.) is 57%.

The compound `Nc1ccc2c(c1)C(=O)NC(C(Cl)(Cl)Cl)O2` (centres unmarked) [drawing 8; R1=H; R3=NH2; R5=H, 6-amino-3,4-dihydro-2-trichloromethyl-2H-benzo[e]-[1,3]-oxazin-4-one] yielded an inhibition at 1 µg/mL (in vitro rumen fluid, 39° C.) of 98%.

Regarding `CC(=O)N1C(=O)c2ccccc2N(C(C)=O)C1C(Cl)(Cl)Cl` (centres unmarked) [drawing 10; R3=H; R5=CH3 CO; R6=CH3 CO, 1,3-diacetyl-1,2-dihydro-2-trichloromethylquinazolin-4-one], testing at 1 µg/mL (in vitro rumen fluid, 39° C.) gave an inhibition of 90%.

Turning to `O=C1NC(C(Cl)(Cl)Cl)Nc2ccc([N+](=O)[O-])cc21` (centres unmarked) [drawing 5; R3=NO2; R5=H; R6=H, 1,2-dihydro-6-nitro-2-trichloromethylquinazolin-4-one], the IC50 turned out to be 3 µg/mL (≈ 9.66 µM).

For the compound `NC(=O)c1ccc2c(c1)C(=O)NC(C(Cl)(Cl)Cl)O2` (centres unmarked) [drawing 6; R3=NH2 CO; R5=H, 3,4-dihydro-4-oxo-2-trichloromethyl-2H-benzo[e]-[1,3]-oxazine-6-carboxamide], the IC50 worked out at 0.3 µg/mL (≈ 0.969 µM).

On to `O=C1NC(C(Cl)(Cl)Cl)Oc2ccc([N+](=O)[O-])cc21` (centres unmarked) [drawing 6; R3=NO2; R5=H], for which the IC50 was determined as 1 µg/mL (≈ 3.21 µM).

For `O=C1NC(C(Cl)(Cl)Cl)Oc2ccc(O)cc21` (centres unmarked) [drawing 6; R3=HO; R5=H, 3,4-dihydro-6-hydroxy-2-trichloromethyl-2H-benzo[e]-[1,3]-oxazin-4-one], the IC50 came to 0.5 µg/mL (≈ 1.77 µM).

On to `O=[N+]([O-])c1ccc2c(c1)COC(C(Cl)(Cl)Cl)N2` (centres unmarked) [drawing 7; R3=NO2, 1,2-dihydro-6-nitro-2-trichloromethyl-4H-benzo[d]-[1,3]oxazine], for which the IC50 turned out to be 0.5 µg/mL (≈ 1.68 µM).

As to `CCCCOC(=O)C1OC(C(Cl)(Cl)Cl)Nc2ccccc21` (centres unmarked) [drawing 9; R1=H; R3=H; R11=n-C4 H9 O . CO, butyl 1,2-dihydro-2-trichloromethyl-4H-benzo[d]-[1,3]-oxazine-4-carboxylate], for the setting “in vitro rumen fluid, 39° C.”, the inhibition at 1 µg/mL stood at 12%.

Turning to `CCCCOc1ccc2c(c1)C(=O)NC(C(Cl)(Cl)Cl)O2` (centres unmarked) [drawing 6; R3=CH3 (CH2)3 O; R5=H, 6-butyloxy-3,4-dihydro-2-trichloromethyl-2H-benzo[e]-[1,3]-oxazin-4-one], the IC50 was 3 µg/mL (≈ 8.86 µM).

In the case of `O=CN1C(=O)c2ccccc2OC1C(Cl)(Cl)Cl` (centres unmarked) [drawing 6; R3=H; R5=HCO, 3-formyl-3,4-dihydro-2-trichloromethyl-2H-benzo[e]-[1,3]-oxazin-4-one], the IC50 was determined as 0.5 µg/mL (≈ 1.7 µM).
